Assay results reported in the supplement of paper PMC10307832.

Legend:
Assay in all cases: relative viability (nuclei count vs DMSO), 5 days (fraction); higher = more cells survive
Shikonin + Foretinib = compound: CC(C)=CC[C@@H](O)C1=CC(=O)c2c(O)ccc(O)c2C1=O [Shikonin] + COc1cc2c(Oc3ccc(NC(=O)C4(C(=O)Nc5ccc(F)cc5)CC4)cc3F)ccnc2cc1OCCCN1CCOCC1 [Foretinib] (partner 0.25 µM)
Outline: (§1)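 For relative viability, nuclei counts in treated wells were divided by those in vehicle wells. Lung cancer cell lines had been pin-tool dosed in 1536-well plates the day after seeding and cultured for 5 days, then fixed and stained in one step (final 0.05% Triton X-100, 1% formaldehyde, 1 ug/ml Hoechst) and imaged at 4×. Doses were one drug alone or a fixed anchor-drug dose plus five library-drug doses (not always all listed) in √10 steps, and values are duplicate-plate medians.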

Shikonin + Pictilisib = compound: CC(C)=CC[C@@H](O)C1=CC(=O)c2c(O)ccc(O)c2C1=O [Shikonin] + CS(=O)(=O)N1CCN(Cc2cc3nc(-c4cccc5[nH]ncc45)nc(N4CCOCC4)c3s2)CC1 [Pictilisib] (partner 1 µM)
Outline: as §1

[1] = compound: CC(C)N(CCCNC(=O)Nc1ccc(C(C)(C)C)cc1)C[C@H]1O[C@@H](n2ccc3c(N)ncnc32)[C@H](O)[C@@H]1O + Cc1cc(Nc2cc(N3CCN(C)CC3)nc(Sc3ccc(NC(=O)C4CC4)cc3)n2)n[nH]1 [Tozasertib] (partner 0.1 µM)
Outline: as §1

[2] = compound: CC(C)N(CCCNC(=O)Nc1ccc(C(C)(C)C)cc1)C[C@H]1O[C@@H](n2ccc3c(N)ncnc32)[C@H](O)[C@@H]1O + O=C(c1cc(Cc2n[nH]c(=O)c3ccccc23)ccc1F)N1CCN(C(=O)C2CC2)CC1 [Olaparib] (partner 8 µM)
Outline: as §1

Cell Line	relative viability (Shikonin + Foretinib; first compound 0.01 µM)	relative viability (Shikonin + Foretinib; first compound 0.1 µM)	relative viability (Shikonin + Foretinib; first compound 0.3162 µM)	relative viability (Shikonin + Foretinib; first compound 1 µM)	relative viability (Shikonin + Pictilisib; first compound 0.01 µM)	relative viability (Shikonin + Pictilisib; first compound 0.1 µM)	relative viability (Shikonin + Pictilisib; first compound 0.3162 µM)	relative viability (Shikonin + Pictilisib; first compound 1 µM)	relative viability ([1]; first compound 0.08 µM)	relative viability ([1]; first compound 0.253 µM)	relative viability ([1]; first compound 0.8 µM)	relative viability ([1]; first compound 2.53 µM)	relative viability ([1]; first compound 8 µM)	relative viability ([2]; first compound 0.08 µM)	relative viability ([2]; first compound 0.253 µM)	relative viability ([2]; first compound 0.8 µM)	relative viability ([2]; first compound 2.53 µM)	relative viability ([2]; first compound 8 µM)
EPLC-272H	0.715	0.601	0.783	0.726	0.299	0.383	0.292	0.36	0.315	0.215	0.287	0.217	0.244	0.669	0.85	0.764	0.734	0.859
NCI-H1915	1.13	1.12	1.15	1.2	0.975	1.09	1.05	0.958	0.443	0.401	0.434	0.388	0.426	0.244	0.288	0.229	0.236	0.23
NCI-H3122	0.959	0.997	0.947	1.01	0.638	0.643	0.607	0.494	0.477	0.489	0.382	0.383	0.353	0.684	0.632	0.536	0.663	0.512
NCI-H441	0.941	1.17	0.849	1.04	0.621	0.436	0.485	0.437	0.599	0.66	–	0.716	0.577	0.558	0.632	–	0.544	0.573
NCI-H2170	1.03	0.88	1.06	1.02	0.291	0.34	0.338	0.326	0.723	0.72	0.645	0.709	0.74	0.59	0.573	0.619	0.601	0.539
NCI-H1395	0.955	0.949	0.948	0.939	0.603	0.695	0.584	0.652	0.727	0.731	0.63	0.774	0.741	0.496	0.443	0.405	0.464	0.438
NCI-H358	0.651	0.729	0.707	0.604	0.297	0.366	0.281	0.343	0.112	0.117	0.119	0.0915	0.112	0.593	0.605	0.565	0.562	0.542
PC-3 [JPC-3]	1.06	1.16	1.1	1.1	0.69	0.84	0.759	0.788	0.856	0.976	0.831	0.851	0.763	1.12	1.15	–	1.11	1.07
CAL-12T	1.02	1.08	1.23	1.16	0.368	0.409	0.35	0.414	0.326	0.315	0.309	0.293	0.29	0.735	0.775	0.702	0.698	0.723
